# Measurements reported in patent US20230113037A1 (Bayer Aktiengesellschaft, priority 2019, published 2023).
# Target: T1, AHR (Mus musculus, UniProt P30561)
# T1 sequence (P30561 1-848 P471L/N533S/M589L): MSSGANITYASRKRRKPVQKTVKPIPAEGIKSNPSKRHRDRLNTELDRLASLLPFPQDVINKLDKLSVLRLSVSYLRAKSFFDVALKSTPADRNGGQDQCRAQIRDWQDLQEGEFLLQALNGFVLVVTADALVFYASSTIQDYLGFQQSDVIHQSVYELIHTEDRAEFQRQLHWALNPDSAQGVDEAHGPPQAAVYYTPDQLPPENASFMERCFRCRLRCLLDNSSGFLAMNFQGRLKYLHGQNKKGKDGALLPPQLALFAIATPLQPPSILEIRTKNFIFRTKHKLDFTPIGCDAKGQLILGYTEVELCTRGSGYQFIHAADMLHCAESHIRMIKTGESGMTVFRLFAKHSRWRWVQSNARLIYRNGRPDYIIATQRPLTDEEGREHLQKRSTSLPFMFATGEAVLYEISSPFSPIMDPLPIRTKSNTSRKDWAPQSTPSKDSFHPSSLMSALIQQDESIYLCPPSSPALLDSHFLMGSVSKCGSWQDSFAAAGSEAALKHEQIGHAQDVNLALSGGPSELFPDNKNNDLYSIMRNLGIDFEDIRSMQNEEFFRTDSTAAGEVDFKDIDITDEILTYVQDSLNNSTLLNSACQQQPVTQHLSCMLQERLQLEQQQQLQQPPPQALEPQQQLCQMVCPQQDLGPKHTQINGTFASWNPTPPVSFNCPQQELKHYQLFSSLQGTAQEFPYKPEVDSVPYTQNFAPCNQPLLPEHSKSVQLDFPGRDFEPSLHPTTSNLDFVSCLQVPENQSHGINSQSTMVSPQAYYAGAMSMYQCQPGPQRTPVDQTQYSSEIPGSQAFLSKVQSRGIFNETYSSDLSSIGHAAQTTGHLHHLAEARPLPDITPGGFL
# Assay: In vitro assay 3: antagonism in mouse cell line (AHR transactivation, firefly luciferase reporter, kynurenic acid prestimulated)
# Format: cell-based
# Details: Hepa 1c1c7 cells, 200 μM kynurenic acid, 20 hours, firefly luciferase reporter, read-out: AHR Antagonism Mouse IC50
# Protocol: Examples were tested in selected biological assays one or more times. When tested more than once, data are reported as either average values or as median values, wherein • the average value, also referred to as the arithmetic mean value, represents the sum of the values obtained divided by the number of times tested, and • the median value represents the middle number of the group of values when ranked in ascending or descending order. If the number of values in the data set is odd, the median is the middle value. If the number of values in the data set is even, the median is the arithmetic mean of the two middle values.
# In addition the cells were stably transfected with an AHR inducible firefly luciferase reporter gene construct that carried AHR-binding sites (DRE) in its promoter. Kynurenic acid is an endogenous AHR activating ligand and was used to prestimulate test cells prior to testing the antagonistic properties of compounds.
# As positive inhibition control cells without addition of kynurenic acid were incubated. Normalization was done by positive and negative controls.
# Firefly luciferase activity was determined by the SteadyGlo Luciferase Assay System (Promega, #E2550).
row,IC50,SMILES
1,0.409 nM,"O=C1NCCCC[C@H]1Nc1nc2c(Br)cccc2c2nc(-c3cnn(C(F)F)c3)nn12 [Example 827, (3R)-3-({7-bromo-2-[1-(difluoromethyl)-1H-pyrazol-4-yl][1,2,4]triazolo[1,5-c]quinazolin-5-yl}amino)azepan-2-one]"
2,52.9 nM,"COc1ccc(-c2nc3c4cccc(C)c4nc(N[C@H]4CNCCNC4=O)n3n2)cc1 [Example 970, (6S)-6-{[2-(4-methoxyphenyl)-7-methyl[1,2,4]triazolo[1,5-c]quinazolin-5-yl]amino}-1,4-diazepan-5-one]"
3,12 nM,"O=C1NCCNC[C@@H]1Nc1nc2ccccc2c2nc(-c3ccc(F)cc3)nn12 [Example 965, (6S)-6-{[2-(4-fluorophenyl)[1,2,4]triazolo[1,5-c]quinazolin-5-yl]amino}-1,4-diazepan-5-one]"

# Same assay, conditions: mouse Hepa 1c1c7 cells, 200 μM kynurenic acid, 20 hours, read-out: AHR Antagonism Mouse IC50
row,SMILES,IC50
1,"COc1cccc(-c2nc3c4ccccc4nc(NC(C)(C)C(N)=O)n3n2)c1 [Example 98, N^2-[2-(3-methoxyphenyl)[1,2,4]triazolo[1,5-c]quinazolin-5-yl]-2-methylalaninamide]",1140 nM
2,"COc1cccc(-c2nc3c4cc(C)ccc4nc(NC4CCCNC4=O)n3n2)c1 (centres unmarked) [Example 157, 3-{[2-(3-methoxyphenyl)-9-methyl[1,2,4]triazolo[1,5-c]quinazolin-5-yl]amino}piperidin-2-one]",45.4 nM
3,"O=C1NCCNCC1Nc1nc2cccc(Br)c2c2nc(-c3cccc(F)c3)nn12 (centres unmarked) [Example 283, 6-{[10-bromo-2-(3-fluorophenyl)[1,2,4]triazolo[1,5-c]quinazolin-5-yl]amino}-1,4-diazepan-5-one]",172 nM
4,"N#Cc1ccc(-c2nc3c4ccccc4nc(N[C@@H]4CCNC4=O)n3n2)cc1 [Example 388, 4-(5-{[(3R)-2-oxopyrrolidin-3-yl]amino}[1,2,4]triazolo[1,5-c]quinazolin-2-yl)benzonitrile]",2890 nM
5,"COc1ccc(-c2nc3c4ccccc4nc(N[C@@H]4CN(C)CCNC4=O)n3n2)cc1 [Example 656, (6R)-6-{[2-(4-methoxyphenyl)[1,2,4]triazolo[1,5-c]quinazolin-5-yl]amino}-1-methyl-1,4-diazepan-5-one]",30.1 nM
6,"COc1ccc(-c2nc3c4cccc(C(F)(F)F)c4nc(N[C@H]4CCCCNC4=O)n3n2)cc1 [Example 582, (3S)-3-{[2-(4-methoxyphenyl)-7-(trifluoromethyl)[1,2,4]triazolo[1,5-c]quinazolin-5-yl]amino}azepan-2-one]",44.1 nM
7,"O=C1NCCNCC1Nc1nc2cccc(Cl)c2c2nc(-c3ccc(F)cc3)nn12 (single isomer, unassigned) [Example 299, 6-{[10-chloro-2-(4-fluorophenyl)[1,2,4]triazolo[1,5-c]quinazolin-5-yl]amino}-1,4-diazepan-5-one]",37.3 nM
8,"CC[C@H](Nc1nc2ccccc2c2nc(-c3cccc(OC(F)(F)F)c3)nn12)C(N)=O [Example 448, (2S)-2-({2-[3-(trifluoromethoxy)phenyl][1,2,4]triazolo[1,5-c]quinazolin-5-yl}amino)butanamide]",134 nM
9,"O=C1NCCNCC1Nc1nc2cccc(Cl)c2c2nc(-c3ccc(F)cc3)nn12 (single isomer, unassigned) [Example 298, 6-{[10-chloro-2-(4-fluorophenyl)[1,2,4]triazolo[1,5-c]quinazolin-5-yl]amino}-1,4-diazepan-5-one]",63.3 nM
10,"COc1ccc(-c2nc3c4cc(C(F)(F)F)ccc4nc(N[C@@H]4CCCCNC4=O)n3n2)cc1 [Example 545, (3R)-3-{[2-(4-methoxyphenyl)-9-(trifluoromethyl)[1,2,4]triazolo[1 ,5-c]quinazolin-5-yl]amino}azepan-2-one]",> 20000 nM
11,"O=C1NCCCC[C@H]1Nc1nc2c(Br)cc(Br)cc2c2nc(-c3ccc(F)cc3)nn12 [Example 591, (3R)-3-{[7,9-dibromo-2-(4-fluorophenyl)[1,2,4]triazolo[1,5-c]quinazolin-5-yl]amino}azepan-2-one]",2420 nM
12,"CC[C@H](Nc1nc2ccccc2c2nc(-c3ccccc3OC(F)(F)F)nn12)C(N)=O [Example 462, (2S)-2-({2-[2-(trifluoromethoxy)phenyl][1,2,4]triazolo[1,5-c]quinazolin-5-yl}amino)butanamide]",81.2 nM
13,"Cn1cc(-c2nc3c4c(C5CC5)cccc4nc(NC4CNCCNC4=O)n3n2)cn1 (centres unmarked) [Example 294, 6-{[10-cyclopropyl-2-(1-methyl-1H-pyrazol-4-yl)[1,2,4]triazolo[1,5-c]quinazolin-5-yl]amino}-1,4-diazepan-5-one]",5430 nM

# The next lines start with the values.
row,IC50,SMILES
1,23.8 nM,"COc1ccc(-c2nc3c4ccccc4nc(NC4CNCCNC4=O)n3n2)cc1 (centres unmarked) [Example 34, 6-{[2-(4-methoxyphenyl)[1,2,4]triazolo[1,5-c]quinazolin-5-yl]amino}-1,4-diazepan-5-one]"
2,23.6 nM,"COc1ccc(-c2nc3c4c(Br)cccc4nc(N[C@@H]4CNCCNC4=O)n3n2)cc1 (stereo in doubt) [Example 281, 6-{[10-bromo-2-(4-methoxyphenyl)[1,2,4]triazolo[1,5-c]quinazolin-5-yl]amino}-1,4-diazepan-5-one]"
3,19.3 nM,"CN1CC[C@@H](Nc2nc3ccccc3c3nc(-c4ccc(OC(F)(F)F)cc4)nn23)C1=O [Example 328, (3R)-1-methyl-3-({2-[4-(trifluoromethoxy)phenyl][1,2,4]triazolo[1,5-c]quinazolin-5-yl}amino)pyrrolidin-2-one]"
4,17.5 nM,"O=C1NCCCC[C@@H]1Nc1nc2ccccc2c2nc(-c3ccccc3Br)nn12 [Example 453, (3S)-3-{[2-(2-bromophenyl)[1,2,4]triazolo[1,5-c]quinazolin-5-yl]amino}azepan-2-one]"
5,17 nM,"COc1cccc(-c2nc3c4ccccc4nc(N[C@@H](C(=O)O)C(C)C)n3n2)c1 [Example 94, N-[2-(3-methoxyphenyl)[1,2,4]triazolo[1,5-c]quinazolin-5-yl]-D-valine]"
6,9.76 nM,"COc1ccc(-c2nc3c4ccccc4nc(N[C@H]4CCCCNC4=O)n3n2)cc1 [Example 30, (3S)-3-{[2-(4-methoxyphenyl)[1,2,4]triazolo[1,5-c]quinazolin-5-yl]amino}azepan-2-one]"
7,5.53 nM,"O=C1NCCC[C@H]1Nc1nc2ccccc2c2nc(-c3ccc(Cl)cc3OC(F)F)nn12 [Example 527, (3R)-3-({2-[4-chloro-2-(difluoromethoxy)phenyl][1,2,4]triazolo[1,5-c]quinazolin-5-yl}amino)piperidin-2-one]"
8,5.01 nM,"O=C1NCCCC[C@@H]1Nc1nc2c(Br)cccc2c2nc(-c3ccc(F)cc3)nn12 [Example 210, (3S)-3-{[7-bromo-2-(4-fluorophenyl)[1,2,4]triazolo[1,5-c]quinazolin-5-yl]amino}azepan-2-one]"
9,4.35 nM,"O=C1NCCCC[C@H]1Nc1nc2c(C(F)(F)F)cccc2c2nc(-c3ccc(Cl)cc3OC(F)(F)F)nn12 [Example 672, (3R)-3-({2-[4-chloro-2-(trifluoromethoxy)phenyl]-7-(trifluoromethyl)[1,2,4]triazolo[1,5-c]quinazolin-5-yl}amino)azepan-2-one]"
10,2.44 nM,"O=C1NCCCC[C@@H]1Nc1nc2ccccc2c2nc(-c3ccc(Cl)cc3)nn12 [Example 7, (3S)-3-{[2-(4-chlorophenyl)[1,2,4]triazolo[1,5-c]quinazolin-5-yl]amino}azepan-2-one]"
11,1.53 nM,"O=C1NCCC[C@H]1Nc1nc2c(Br)cccc2c2nc(-c3ccc(F)cc3)nn12 [Example 226, (3R)-3-{[7-bromo-2-(4-fluorophenyl)[1,2,4]triazolo[1,5-c]quinazolin-5-yl]amino}piperidin-2-one]"
12,1.23 nM,"COc1ccc(-c2nc3c4cccc(Br)c4nc(N[C@@H]4CCCCNC4=O)n3n2)cc1 [Example 215, (3R)-3-{[7-bromo-2-(4-methoxyphenyl)[1,2,4]triazolo[1,5-c]quinazolin-5-yl]amino}azepan-2-one]"
13,1.2 nM,"O=C1NCCNC[C@H]1Nc1nc2c(Br)cccc2c2nc(-c3ccc(F)cc3)nn12 [Example 269, (6R)-6-{[7-bromo-2-(4-fluorophenyl)[1,2,4]triazolo[1,5-c]quinazolin-5-yl]amino}-1,4-diazepan-5-one]"
